From patent US20260193285A1, “GRAMINE-PLATINUM (IV) COMPLEX AS WELL AS PREPARATION METHOD THEREFOR AND ANTI-TUMOR USE THEREOF” (TIANJIN MEDICAL UNIVERSITY CANCER INSTITUTE & HOSPITAL, priority 2022, published 2026)
“And” between values parts separate entries of the source, which are not always exact repeats. Equal entries are not always repeated.

Legend:
[1] = test system: KPC tumor model; test: In vivo anti-tumor activity, pancreatic cancer KPC model; settings: for final survival rate: dead includes body weight decrease of more than 20%; for tumor inhibition rate at the treatment endpoint: Pt 3.0 mg/kg once every 3 days, five times; for PD-1 level in tumors (flow cytometry): solvent control 15.7%
Protocol: Firstly, a KPC tumor model was established using C57BL/6 female mice 4-5 weeks old. […] The drugs were formulated at a Pt concentration of 3.0 mg/kg, once every 3 days and five times in total, while the body weight and tumor volume of the mice were measured every 3 days. The mice were sacrificed and the organs (heart, liver, spleen, lung, kidney) and tumors thereof were excised. The tumors were used for flow cytometry to determine the content of immune cells.

[2] = test system: 4T1-Luc tumor model; test: In vivo anti-tumor activity, breast cancer 4T1-Luc tumor model; settings: for final survival rate: dead includes body weight decrease of more than 20%
Protocol: Firstly, a 4T1-Luc tumor model was established using Balb/c female mice 4-5 weeks old. After the tumor volume reached […], the mice were randomly divided into four groups, namely Solvent, Cisplatin, Cisplatin+Gramine, and Compound c groups, respectively. The drugs were formulated at a Pt concentration of 2.0 mg/kg, once every 3 days and six times in total, while the body weight and tumor volume of the mice were measured every 2 days. The mice were sacrificed and the organs (heart, liver, spleen, lung, kidney) and tumors thereof were excised. The organs and tumors were used for H&E staining, immunohistochemical staining, and ICP-MS determination of platinum content.

[3] = test system: Patient-derived xenografts (PDXs) of pancreatic cancer; test: In vivo anti-tumor activity, pancreatic cancer PDX model; settings: for final survival rate: dead includes body weight decrease of more than 20%; for tumor inhibition rate at the treatment endpoint: Pt 3.0 mg/kg once every 3 days, five times
Protocol: Patient-derived xenografts (PDXs) were used. Fresh tumor tissue from a patient was treated and transplanted subcutaneously into the groin of immunodeficient NOD-SCID IL-2 receptor gamma null (NSG) mice. […] The successfully transplanted tumor was passaged for 3 passages or more in NSG mice to obtain mouse models for experiments. […] The drugs were formulated at a Pt concentration of 3.0 mg/kg, once every 3 days and five times in total, while the body weight and tumor volume of the mice were measured every 3 days. The mice were sacrificed and the organs (heart, liver, spleen, lung, kidney) and tumors thereof were excised. The organs and tumors were used for ICP-MS determination of platinum content.

[4] = test system: LO2 (human liver cells); test: Cytotoxicity (MTT) on normal cell line LO2; assay type: cell-based; settings: 72 hours
From the text: (§1) In this assay, the anti-tumor activity of the synthesized compounds was studied by MTT (3-(4,5-dimethylthiazolyl-2)-2,5-diphenyltetrazolium bromide) method. Eight kinds of cancer cells including MDA-MB-231 (human breast cancer cells), MCF-7 (human breast cancer cells), HCT-116 (human colon cancer cells), HeLa (human cervical cancer cells), FaDu (human pharyngeal squamous carcinoma cells), 5637 (human bladder cancer cells), OVCAR3 (human ovarian cancer cells), HCCC9810 (human liver cancer cells) and one normal human cell line LO2 (human liver cells) were used in this assay to perform experimental research on cytotoxicity. All cell lines were cultured in an incubator with 5% CO2 and saturated humidity at 37° C. The specific experimental steps were as follows:
(§2) The cells in logarithmic growth phase were collected, counted, adjusted to a cell concentration of 3× 10^4 cells/mL, and then seeded into a 96-well plate at 100 μL/well. The blank group (Blank, pure medium group) and the control group (Control, no drug group) were set up. The plate was cultured overnight in a cell culture incubator. After adhesion, the compounds were diluted with culture medium and added to the first column of administration wells at a desired concentration for these wells, followed by the 2-fold serial dilution and administration in subsequent wells, and pipetted gently to mix well. After incubation for 72 hours, 10 μL of MTT solution (5 mg/mL) was added to each well. After cultivation in the incubator for another 4 hours, the supernatant was removed, and DMSO was added at 100 μL/well. After shaking thoroughly, the OD value was measured using a microplate-reader at […]. Three independently repeated experiments were carried out to ensure the reliability of the experimental results.

[5] = test system: HeLa (human cervical cancer cells); test: In vitro anti-tumor activity assay (MTT), HeLa; assay type: cell-based; settings: 72 hours, average of multiple measurements
From the text: as §1, §2

[6] = test system: MCF-7 (human breast cancer cells); test: In vitro anti-tumor activity assay (MTT), MCF-7; assay type: cell-based; settings: average of multiple measurements
From the text: as §1, §2

[7] = test system: MDA-MB-231 (human breast cancer cells); test: In vitro anti-tumor activity assay (MTT), MDA-MB-231; assay type: cell-based; settings: for IC50: 72 hours, MTT, average of multiple measurements
From the text: as §1, §2

[8] = test system: HCT-116 (human colon cancer cells); test: In vitro anti-tumor activity assay (MTT), HCT-116; assay type: cell-based; settings: average of multiple measurements
From the text: as §1, §2

[9] = test system: pancreatic cancer cells SW1990; test: CCK-8 inhibition of pancreatic cancer cells, SW1990; assay type: cell-based; settings: CCK-8, 72 hours
Protocol: (§3) In this experiment, CCK-8 was used to study the proliferation activity of pancreatic cancer cells SU86.86, MIA-PaCa2, SW1990, CFPAC-1 and BxPC-3. All cell lines were cultured in an incubator with 5% CO2 and saturated humidity at 37° C. The experimental steps were as follows:
(§4) The cells in logarithmic growth phase were collected, counted, adjusted to a cell concentration of 3×10^4 cells/mL, and then seeded into a 96-well plate at 100 μL/well. The blank group (Blank, medium group without cells) and the control group (Control, medium group with cells) were set up. After the cells in the culture plate were cultured overnight in the incubator with saturated humidity at 37° C. and adhered, the compounds were diluted with culture medium and added to the first column of administration wells at a desired concentration for these wells, followed by the 2-fold serial dilution and administration at 18 concentrations in total, and pipetted gently to mix well. After incubation for 72 hours, 10 μL of CCK8 solution (5 mg/mL) was added to each well. After cultivation in the incubator for another 4 hours, the OD value was measured using a microplate-reader at λ=450 nm.

[10] = test system: pancreatic cancer cells CFPAC-1; test: CCK-8 inhibition of pancreatic cancer cells, CFPAC-1; assay type: cell-based; settings: CCK-8, 72 hours
Protocol: as §3, §4

[11] = test system: pancreatic cancer cells MIA-PaCa2; test: CCK-8 inhibition of pancreatic cancer cells, MIA-PaCa2; assay type: cell-based; settings: CCK-8, 72 hours
Protocol: as §3, §4

[12] = test system: pancreatic cancer cells SU86.86; test: CCK-8 inhibition of pancreatic cancer cells, SU86.86; assay type: cell-based; settings: CCK-8, 72 hours
Protocol: as §3, §4

[13] = test system: pancreatic cancer cells BxPC-3; test: CCK-8 inhibition of pancreatic cancer cells, BxPC-3; assay type: cell-based; settings: CCK-8, 72 hours
Protocol: as §3, §4

[14] = test system: pancreatic cancer organoids from patients; test: In vitro organoid activity assay, pancreatic cancer; assay type: cell-based, human; settings: 96 hours, CellTiter-Glo 3D, one value per case; read-out: IC50 in organoid models of 2 cases of pancreatic cancer
Protocol: (§5) The experimental steps were as follows:
(§6) Tumor samples were obtained from the patients undergoing surgery for breast cancer and pancreatic cancer, and digested with tumor dissociation kits. Tumor suspensions were collected and centrifuged to obtain tumor organoids. Complete culture medium for breast cancer or pancreatic cancer organoids was added to the organoid models which were cultured and passaged under the culture conditions of 5% CO2 and saturated humidity at 37° C. The organoids in logarithmic growth phase were collected, counted, resuspended in Matrigel at an organoid concentration of 5×10^4 cells/mL, and then seeded into a 96-well plate at 20 μL/well, followed by further addition of 80 μL of complete medium. The blank group (Blank, medium group without organoids) and the control group (Control, medium group with organoids) were set up. After the organoids were cultured overnight in an incubator with 5% CO2 at 37° C. and adhered, 200 μL of the culture medium containing the drug at a concentration of 20 μM was added to the first administration well, followed by the 2-fold serial dilution and administration, and pipetted gently to mix well. After incubation for 96 hours, representative photos were taken for each well using an inverted microscope, and 10 μL of CellTiter-Glo 3D Reagent (Promega) solution was added to each well to detect the organoid viability.

[15] = test system: OVCAR3 (human ovarian cancer cells); test: In vitro anti-tumor activity assay (MTT), OVCAR3; assay type: cell-based; settings: 72 hours, average of multiple measurements, read-out: IC50 OVCRA3
From the text: as §1
(§7) The cells in logarithmic growth phase were collected, counted, adjusted to a cell concentration of 3× 10^4 cells/mL, and then seeded into a 96-well plate at 100 μL/well. The blank group (Blank, pure medium group) and the control group (Control, no drug group) were set up. The plate was cultured overnight in a cell culture incubator. […] After shaking thoroughly, the OD value was measured using a microplate-reader at 2=570 nm. […]

[16] = test system: 5637 (human bladder cancer cells); test: In vitro anti-tumor activity assay (MTT), 5637; assay type: cell-based; settings: 72 hours, average of multiple measurements
From the text: as §1, §7

[17] = test system: HCCC9810 (human liver cancer cells); test: In vitro anti-tumor activity assay (MTT), HCCC9810; assay type: cell-based; settings: 72 hours, average of multiple measurements, read-out: IC50 HCCC 9810
From the text: as §1, §7

[18] = test system: breast cancer organoids from patients; test: In vitro organoid activity assay, breast cancer; assay type: cell-based, human; settings: 96 hours, CellTiter-Glo 3D, one value per case; read-out: IC50 in organoid models of 2 cases of breast cancer
Protocol: as §5, §6

[19] = test system: FaDu (human pharyngeal squamous carcinoma cells); test: In vitro anti-tumor activity assay (MTT), FaDu; assay type: cell-based; settings: 72 hours, average of multiple measurements
From the text: as §1, §7

[20] = pancreatic cancer KPC, Pt 3.0 mg/kg
[21] = 4T1-Luc, Pt 2.0 mg/kg once every 3 days, six times
[22] = pancreatic cancer PDX, Pt 3.0 mg/kg

Compound | final survival rate [1, 20] | H&E staining: damage to tumor tissues ([2]; 4T1-Luc, Pt 2.0 mg/kg) | final survival rate ([2]; 4T1-Luc, Pt 2.0 mg/kg) [%] | final survival rate [3, 22] [%] | IC50 [4] [µM] | IC50 [9] [µM] | IC50 [10] [µM] | IC50 [5] [µM] | IC50 ([6]; 72 hours) [µM] | IC50 [11] [µM] | tumor inhibition rate at the treatment endpoint ([1]; pancreatic cancer KPC) [%] | PD-1 level in tumors (flow cytometry) [1, 20] [%] | IC50 [12] [µM] | IC50 [13] [µM] | IC50 [7] [µM] | IC50 ([8]; 72 hours) [µM] | body weight change of mice [3, 22] | tumor inhibition rate at the treatment endpoint ([3]; pancreatic cancer PDX) [%] | other results
CCCCCCCCCCCCNC(=O)[O][Pt]([NH2])([NH2])([Cl])([Cl])[O]C(=O)CCC(=O)n1cc(CN(C)C)c2ccccc21 [Compound c] | 100% | severe damage to tumor tissues | 100 | 100 | – | – | – | – | – | – | – | – | – | – | – | – | – | – | body weight change of mice ([1]; mouse, in vivo): substantially stable body weight; immunohistochemical staining of mouse spleens (CD4+, CD8+, Foxp3 Treg cells) ([2]; 4T1-Luc, Pt 2.0 mg/kg): increasing the number of CD4+ and CD8+ cells, while decreasing the number of Treg cells; tumor growth (tumor volume, tumor weight) [2, 21]: significantly inhibited tumor growth; platinum accumulation in tissues (ICP-MS) ([2]; mouse, in vivo): significantly decreased the accumulation in the kidney and spleen; body weight change of mice ([3]; mouse, in vivo): weight recovery and stability from Day 9 post-treatment; platinum accumulation in tissues (ICP-MS) ([3]; mouse, in vivo): significantly decreased the accumulation in the kidney and spleen
CN(C)Cc1c[nH]c2ccccc12 [GM, gramine] | – | – | – | – | > 100 | – | – | – | – | – | – | – | – | – | – | – | – | – | IC50 ([5]; Homo sapiens, HeLa): > 100 µM; IC50 ([6]; Homo sapiens, MCF7, 72 hours): > 100 µM; IC50 ([7]; Homo sapiens, MDA-MB-231): > 100 µM; IC50 ([8]; Homo sapiens, HCT-116, 72 hours): > 100 µM
O=C1[O][Pt]2([NH][C@@H]3CCCC[C@H]3[NH]2)[O]C1=O [OXP, oxaliplatin] | – | – | – | 60 | 27.2 | 2.8 | 200 | 14.6 | 17.5 | 2 | 64.76 | 21.0 | 8.02 | 1.37 | 28.2 | 9.98 | significant decline all the time | 68.82 | IC50 [14]: 12.7 µM and > 20 µM
cisplatin [CDDP] | all died finally | severe damage to tumor tissues | 16.67 | 40 | 3.99 | 500 | 603 | 4.94 | 5.9 | 500 | 55.67 | 24.3 | 127 | 420 | 15.8 | 8.79 | significant decline all the time | 32.68 | IC50 [15]: 1.93 µM; IC50 [16]: 1.35 µM; IC50 [17]: 5.55 µM; body weight change of mice [1, 20]: more significant decline; H&E staining: damage to mouse organs ([2]; 4T1-Luc, Pt 2.0 mg/kg): severe damage to the spleen, kidney, and liver; body weight change of mice [2, 21]: significant decline; IC50 [18]: > 20 µM; selectivity index IC50 (LO2)/IC50 (MDA-MB-231) ([7]; tumor cell line MDA-MB-231 versus normal cell line LO2): 0.25; IC50 [19]: 1.57 µM
